The results in this text go back to PubChem BioAssay AID2305 (GlaxoSmithKline (GSK), 2010).

The assay has as its system P. falciparum 3D7 growth, pLDH absorbance. Nature of the assay: P. falciparum 3D7 growth inhibition, dose response, strain 3D7 (AID 2305).

A word on the IC50: it is the concentration needed to halve the response being measured. The low end stands for higher potency, the high end for lower potency. `COc1c(C2CCN(CCCCNC(=O)c3ccc(-c4ccc(C#N)cc4)nc3)CC2)ccc2c1CCCC2`: the IC50 is 530 nM.
The same measure for `O=C(Nc1cccnc1)c1cc(-c2cc(Cl)ccc2O)n[nH]1`: 720 nM.
The same measure for `COc1cc(Cc2cnc(N)nc2N)cc(OCCCOc2ccccc2)c1OC`: 1080 nM.
The same measure for `N#Cc1ccc(CNCCCCCCNCc2ccc(C#N)c3ccccc23)c2ccccc12`: 610 nM.
For `CN(C)Cc1ccc(-c2ccc3c(Nc4ccc(Cl)cc4F)ccnc3c2)o1`, the IC50 is 240 nM.
Next, `O=C(Nc1cccc(CN2CCCN(Cc3cccc(O)c3)CC2)c1)c1ccc(Cl)c(Cl)c1`: 660 nM; `COc1ccc(CNC2CCN(C)CC2)cc1-c1ccc(S(=O)(=O)NC2CCC2)c(C)c1`: 990 nM.
The same measure for `CCN(CC)CCCC(C)Nc1c2cc(OC)ccc2nc2cc(Cl)c([N+](=O)[O-])cc12` (stereo unspecified): 790 nM.
The same measure for `CCOC(=O)C1=C(C)NC2=C(C(=O)CC(C)(C)C2)C1c1ccc(Cl)cc1` (stereo unspecified): 920 nM.
As to `O=C(Nc1ccc2c(c1)CN(Cc1ccc(N3CCCC3)o1)CCC2)c1ccoc1`, the IC50 stood at 950 nM.
`COc1ccc(-c2nc(NC(=O)Cc3coc4cc(OC)ccc34)sc2C)cc1` came in with a 50% inhibitory concentration (IC50) of 610 nM.
The same measure for `Nc1nc(N)c2c(ccc3c2ccn3Cc2ccc(OCc3ccccc3)cc2)n1`: 930 nM; for `CCOC(=O)c1cnc2cc(N3CCCC3)c(Cl)cc2c1OCC`: 110 nM.
For the compound `Cc1ccc(O)cc1Nc1ccnc2ccc(-c3csc(CNCCN4CCOCC4)n3)cc12`, the IC50 is 150 nM.
Next, `COc1cccc(C(=O)NC(c2ccccc2OC)c2cc(Cl)c3cccnc3c2O)c1` (stereo unspecified): 1190 nM.
The same measure for `Cn1cc(CN2CCCC(COC(c3ccc(F)cc3)c3ccc(F)cc3)C2)cn1` (stereo unspecified): 570 nM; for `CN(C)CCCNCCS(=O)(=O)c1cccc(Nc2ccc(-c3cccc(N(C)C)c3)cn2)c1`: 860 nM; for `CCCCc1ccc2nc(NC(=O)OC)[nH]c2c1`: 680 nM.
Next, `CN(Cc1ccccc1)C1CCCN(c2cc(NC(=O)c3cccs3)ccn2)C1` (stereo unspecified): 1130 nM; `COc1ccc2c(NN=Cc3ccc(N(C)C)cc3)ccnc2c1`: 660 nM.
For the compound `COc1ccc(S(=O)(=O)N(CC(=O)NN=C(C)c2cccs2)c2cc(C)cc(C)c2)cc1OC`, the IC50 amounted to 140 nM.
Next, `CCCc1cc(Cc2cnc(N)nc2N)cc(CCC)c1O`: 280 nM; `O=C(NCCCN1CCN(c2cccc(Cl)c2)CC1)c1ccc(-c2nc3cc(Cl)c(Cl)cc3[nH]2)c(F)c1`: 830 nM.
The same measure for `N#Cc1ccc(NC(=O)Nc2ccc(OC(F)(F)F)cc2)cc1`: 820 nM; for `O=C(Nc1ccc(OC2CCN(Cc3ccccc3)CC2)c(Cl)c1)c1ccc(F)cc1`: 800 nM; for `OCCN1CCN(C2Cc3ccc(F)cc3Sc3ccc(Cl)cc32)CC1` (stereo unspecified): 880 nM.
As to `Cc1ccccc1C(=O)Nc1cccc(-c2nc3ncccn3c2C)c1`, the IC50 was 760 nM.
`COc1cccc(NC(=O)NC2CCN(c3ccnc(Nc4cc(OC)c(OC)c(OC)c4)n3)C2)c1` (stereo unspecified) registered an IC50 of 860 nM.
The compound `CC(Cc1ccc(OCCCCOc2ccccc2)cc1)NCCCN1CCOCC1` (stereo unspecified) had an IC50 of 720 nM.
`c1ccc2[nH]c(Nc3ccc(Nc4nc5ccccc5[nH]4)cc3)nc2c1` returned a half-maximal inhibitory concentration (IC50) of 780 nM.
The same measure for `NC(=O)c1ccsc1NC(=O)CNC(c1ccc(F)cc1)c1cccs1` (stereo unspecified): 950 nM; for `COc1ccc(N2CCN(CCCCNC(=O)c3ccc(NC(=O)c4cc(C(F)(F)F)cc(C(F)(F)F)c4)cc3)CC2)cc1OC`: 220 nM; for `COc1ccc2nccc([C@@H](O)CN3CCC(NC(=O)/C=C/c4ccc(Cl)c(C(F)(F)F)c4)CC3)c2c1`: 290 nM.
The same measure for `COc1ccc(C(C(=O)NC2CCN(C[C@H](O)c3ccnc4ccc(OC)cc34)CC2)N2CCN(Cc3ccccc3)CC2)cc1` (stereo partly specified): 150 nM; for `Cc1ccc2[nH]c3ccccc3c(=O)c2c1`: 860 nM; for `CCCCCCN(CCCCCC)CC(O)c1cc(-c2ccc(Cl)cc2)nc2c(C)cc(C)cc12` (stereo unspecified): 70 nM.
